Measurements reported in patent US5135943A, “1H-imidazole derivative compounds and pharmaceutical compositions containing the same” (priority 1984, dated 1992).
Values after ≈ are worked out from the molar mass of the structure shown. Where two headings read alike, the source gives them in different places.

Tests used:
Torulopsis glabrata = test: MIC by two-fold dilution, Torulopsis glabrata; type: cell-based; settings: Nakaseomyces glabratus; 10 strains; read-out: Minimum Inhibitory Concentration
Experimental: (§1) Minimum Inhibitory Concentrations (MICS) of Sertaconazole and Miconazole against 107 yeasts, 47 dermatophytes and 4 fungi were determined by a two-fold dilution method.

cutaneous mycosis = test: Randomized double blind clinical trials, cutaneous mycosis; settings: 2 % cream (nitrate salts)
Experimental: (§2) Human clinical trials were performed with Sertaconazole nitrate and Miconazole nitrate acid addition salts. Randomized double blind trials were carried out with 502 patients suffering from cutaneous mycosis as confirmed by microscopic examination and microbiological culture. 247 patients were treated with 2 % Sertaconazole cream and the remaining 255 patients were treated with 2 % Miconazole cream. All patients received scheduled treatment for 28 days and were followed up for an additional 28 days for possible relapses.

Malasezzia furfur = test: MIC by two-fold dilution, Malasezzia furfur; type: cell-based; settings: 20 strains
Experimental: as §1

Candida s.p. = test: MIC by two-fold dilution, Candida s.p.; type: cell-based
Experimental: as §1

[1] = Prolonged subacute toxicity in rats; type: in vivo, rat; settings: rat, in vivo, po
Experimental: (§3) In a study of prolonged subacute toxicity of Miconazole in rats, among other effects, significant hepatomegalias in females with a dosage of under 30 mg/kg p.o. and in males with a dosage of under 60 mg/kg p.o. were observed.

16 microorganisms = test: Geometric mean of all MIC measurements, comparative in vitro testing; type: cell-based; settings: for MIC: read-out: Geometric means of MIC
Experimental: Minimum Inhibitory Concentrations (MICS) of Sertaconazole were also measured in comparison to four of the compounds described in the Martin Patent, including a compound, referred to herein as Martin Compound 1, which has the same structure as Sertaconazole, expect that the sulfur in the benzothiophene ring is replaced by an oxygen.
The results of comparative in vitro testing of Sertaconazole and these four Martin compounds are shown in the following Table II against 16 microorganisms. The reading time is the time interval from the time of inoculation to the time of measurement.

Microsporum canis = test: MIC by two-fold dilution, Microsporum canis; type: cell-based; settings: 4 strains, read-out: Minimum Inhibitory Concentration
Experimental: as §1

[2] = Acute toxicity (LD50) in mouse, three administration routes; settings: in vivo, males
Text: (§4) A number of compounds with antimycotic and/or fungicidal properties, which are useful in pharmaceutical compositions, are currently known. These include the commercially successful Miconazole having the formula II [drawing 2] Miconazole has a structure chemically similar to the 1H-imidazole derivative compounds of the invention. Miconazole is effective against a number of yeasts, dermatophytes and fungi. This effectiveness can be measured by culturing these microorganisms in vitro and applying a preparation containing the antimycotic compound, Miconazole. The results of this type of in vitro experiment is expressed in terms of the Minimum Inhibitory Concentration (MIC), i.e. the minimum concentration which inhibits the growth of the microorganism. For example, the MIC for Miconazole against a particular Candida albicans strain is found to be 10.7 micrograms/milliliter. The effectiveness of Miconazole as an antimycotic compound is measured in vivo by applying a suspension containing the drug to the skin of a number of animals and measuring the proportion of animals on which growth of the microorganism is inhibited as a function of time. Typically, after 25 days, about 1/4 of the animals were cured, when treated with a cream containing 2 % by weight Miconazole. Of course, any pharmaceutical preparation for treating a disease in a human must satisfy certain toxicity requirements. […] Toxicity tests have been performed on the IH-imidazole derivative compounds of the invention and on Miconazole and other known compounds having antimycotic properties. In toxicity tests the LD50 (the dose at which 50 % mortality occurs) is measured.
(§5) Toxicity of Sertaconazole, Microazole and Martin's compounds 1, 2 and 3, as shown below, has been tested by standard methods. Both acute toxicity, subacute toxicity and chronic toxicity were studied
(§6) Oral, intraperitoneal and subcutaneous acute toxicity of sertaconazole and miconazole have been investigated. LD50 in mouse and rat, male and female, were measured.

[3] = Acute toxicity (LD50) in rat, three administration routes; settings: in vivo, males
Experimental: as §5, §6

Swiss mice = settings: mouse, in vivo
Text: Such signs included convulsions and Straub tail(vertical righting of the tail).

rats = test: Chronic toxicity in rats; type: in vivo, rat; settings: even at dosage levels of 300 mg/kg
[4] = Comparison of acute toxicity of Sertaconazole and Miconazole (Table IV); type: in vivo
Experimental: as §6

[5] = test system: Trichophyton mcntagrophytes; test: Dermal infection in albino female guinea pigs by Trichophyton mentagrophytes; type: in vivo, guinea pig; settings: for % microbiological healing / Negative Cultures to Total Cultures: 2% cream
Text: as §4
Dermal infection in albino female guinea pigs by Trichophyton mcntagrophytes has been studied. Animals were distributed in three groups: a) a control group of infected untreated animals; b) a scrtaconazole group of infected and treated animals; and c) a miconazole group of infected and treated animals. Animals were depleted and a 0.4 ml suspension of the microorganism was applied on the depleted area. Treatment with each of the test drugs was made by application of 1 g of 2% cream on the depleted area on the 4th, 5th and 6th day after infection.

[6] = test system: Scopulariopsis brevi-caulis; test: MIC by two-fold dilution, Scopulariopsis brevicaulis; type: cell-based
Experimental: as §1

Trichophyton rubrum = test: Randomized double blind clinical trials, Trichophyton rubrum infection; type: in vivo, human; settings: 2 % cream (nitrate salts), 28 days treatment
Experimental: as §2

[7] = Safe dosage based on the toxicity findings; settings: in vivo
Experimental: as §3
Based on these finds a safe dosage for Miconazole is about 10 mg/kg, while a safe dosage for Sertaconzole is about 150 mg/kg, i.e about 15 times higher.

Candida albicans = test: MIC by two-fold dilution, Candida albicans; type: cell-based
Text: as §4, §1

[8] = test system: Trichophyton menta-grophytes; test: MIC by two-fold dilution, Trichophyton mentagrophytes; type: cell-based; settings: 30 strains, read-out: Minimum Inhibitory Concentration
Experimental: as §1

Clc1ccc(C(Cn2ccnc2)OCc2csc3c(Cl)cccc23)c(Cl)c1 (stereo not shown) [Sertaconazole]
MIC (Torulopsis glabrata): 1.5 µg/mL (≈ 3.43 µM) | side effects (contact dermatitis) (cutaneous mycosis): no such side effects | more effective than Miconazole (cutaneous mycosis; 28 days treatment): 20.8% | Minimum Inhibitory Concentration (Malasezzia furfur): 25/8 | MIC (Candida s.p.; Candida, 15 strains, read-out: Minimum Inhibitory Concentration): 0.5 µg/mL (≈ 1.14 µM) | increase of activity in comparison to Miconazole (Candida s.p.; in vitro): 47.4% | NOAEL [1]: ≥ 300 mg/kg | MIC (16 microorganisms; 48 h, SZ vs M2, reading time 48 h): 0.366 µg/mL (≈ 0.836 µM) | MIC (16 microorganisms; 48 h, SZ vs M3, reading time 48 h): 0.336 µg/mL (≈ 0.768 µM) | MIC (16 microorganisms; 48 h, SZ vs M4, reading time 48 h): 0.336 µg/mL (≈ 0.768 µM) | MIC (16 microorganisms; 60 h, SZ vs M1, reading time 60 h): 0.876 µg/mL (≈ 2 µM) | Increase of Sertaconazole activity (16 microorganisms; relative to Martin Compound 1): 24% | Increase of Sertaconazole activity (16 microorganisms; relative to Martin Compound 2): 54% | Increase of Sertaconazole activity (16 microorganisms; relative to Martin Compound 3): 16% | Increase of Sertaconazole activity (16 microorganisms; relative to Martin Compound 4): 54% | MIC (Microsporum canis): 2.8 µg/mL (≈ 6.4 µM) | LD50 ([2]; ip, intraperitoneal): > 8000 mg/kg | LD50 ([2]; oral): > 8000 mg/kg | LD50 ([2]; sc, subcutaneous): > 8000 mg/kg | LD50 ([3]; ip, intraperitoneal): > 8000 mg/kg | LD50 ([3]; oral): > 8000 mg/kg | LD50 ([3]; sc, subcutaneous): > 8000 mg/kg | less toxic than Martin Compound 1 (Swiss mice): 8-15 times | signs of intoxication in the central nervous system (convulsions and Straub tail) (Swiss mice): not observed | LD0 (Swiss mice; ip): 4000 mg/kg | LD50 (Swiss mice; ip): 8000 mg/kg | mortality (rats): no mortality was observed | acute toxicity relative to Miconazole ([4]; oral and intraperitoneal routes): an order of magnitude less toxic | acute toxicity relative to Miconazole ([4]; subcutaneous): significantly less | % microbiological healing ([5]; 18 days postinfection): 56% | Negative Cultures to Total Cultures ([5]; 18 days postinfection): 27/48 | % microbiological healing ([5]; 25 days postinfection): 75% | Negative Cultures to Total Cultures ([5]; 25 days postinfection): 36/48 | % microbiological healing ([5]; 32 days postinfection): 84% | Negative Cultures to Total Cultures ([5]; 32 days postinfection): 40/48 | activity higher than Miconazole ([5]; 18th day postinfection): 9 times | activity higher than Miconazole ([5]; 25th day postinfection): 2.7 times | activity higher than Miconazole ([5]; 32nd day postinfection): 1.9 times | MIC ([6]; Scopulariopsis, 4 strains, read-out: Minimum Inhibitory Concentration): 8 µg/mL (≈ 18.3 µM) | increase of activity in comparison to Miconazole ([6]; in vitro): 75% | effectiveness against Trichophyton rubrum (Trichophyton rubrum): 100% | safe dosage higher than that of Miconazole [7]: about 15 times | NOAEL ([7]; rat): ~150 mg/kg | MIC (Candida albicans; Candida albicans, 52 strains, read-out: Minimum Inhibitory Concentration): 6 µg/mL (≈ 13.7 µM) | increase of activity in comparison to Miconazole (Candida albicans; in vitro): 43.9% | MIC [8]: 2.6 µg/mL (≈ 5.94 µM)
